Species on record: Rattus norvegicus
Experiment: DrugMatrix - Regimen: Daily Repeat
Format: toxicity, organism-based, Sprague-Dawley
Design: regimen Daily Repeat, gender Male, age 6-8 weeks
Conditions: in vivo, po, route oral GAVAGE, vehicle 100 % WATER; for ABSOLUTE BASOPHIL / ABSOLUTE EOSINOPHIL / ABSOLUTE LYMPHOCYTE / ABSOLUTE MONOCYTE / ABSOLUTE SEGMENTED NEUTROPHIL / BASOPHIL / EOSINOPHIL / ERYTHROCYTE COUNT / HEMATOCRIT / HEMOGLOBIN / LEUKOCYTE COUNT / LYMPHOCYTE / MEAN CORPUSCULAR HEMOGLOBIN / MEAN CORPUSCULAR HEMOGLOBIN CONCENTRATION / MEAN CORPUSCULAR VOLUME / MONOCYTE / NEUTROPHIL / NUCLEATED RED BLOOD CELLS / PLATELET COUNT: tissue Blood; for ALANINE AMINOTRANSFERASE / ALKALINE PHOSPHATASE / ASPARTATE AMINOTRANSFERASE / BLOOD UREA NITROGEN / CARBON DIOXIDE / CHLORIDE / CHOLESTEROL / CREATINE PHOSPHOKINASE / CREATININE / GLUCOSE / LACTATE DEHYDROGENASE / LIPASE / PHOSPHORUS / POTASSIUM / SODIUM / TOTAL BILIRUBIN / TOTAL PROTEIN / URIC ACID: tissue Plasma
[1] = 0 mg/kg, 72 h, dose level Control, time 3 day
[2] = 0 mg/kg, 120 h, dose level Control, time 5 day
[3] = 10 mg/kg, 72 h, dose level Low, time 3 day
[4] = 10 mg/kg, 120 h, dose level Low, time 5 day

Cn1c(=O)c2[nH]cnc2n(C)c1=O.O [THEOPHYLLINE]
ABSOLUTE BASOPHIL [1]: 0 CELLS/uL
ABSOLUTE EOSINOPHIL [1]: 168.33 CELLS/uL
ABSOLUTE LYMPHOCYTE [1]: 13654.17 CELLS/uL
ABSOLUTE MONOCYTE [1]: 121 CELLS/uL
ABSOLUTE SEGMENTED NEUTROPHIL [1]: 1223.17 CELLS/uL
BASOPHIL [1]: 0%
EOSINOPHIL [1]: 1.17%
ERYTHROCYTE COUNT [1]: 5.7 x10E6/uL
HEMATOCRIT [1]: 35.33%
HEMOGLOBIN [1]: 13.97 G/DL
LEUKOCYTE COUNT [1]: 15.17 x10E3/uL
LYMPHOCYTE [1]: 89.83%
MEAN CORPUSCULAR HEMOGLOBIN [1]: 24.53 pg
MEAN CORPUSCULAR HEMOGLOBIN CONCENTRATION [1]: 39.53 G/DL
MEAN CORPUSCULAR VOLUME [1]: 62.05 fL
MONOCYTE [1]: 0.83%
NEUTROPHIL [1]: 8.17%
NUCLEATED RED BLOOD CELLS [1]: 0 /100WBC
PLATELET COUNT [1]: 1312.17 x10E3/uL
ALANINE AMINOTRANSFERASE [1]: 50.83 u/L
ALKALINE PHOSPHATASE [1]: 334.17 u/L
ASPARTATE AMINOTRANSFERASE [1]: 82.17 u/L
BLOOD UREA NITROGEN [1]: 15.5 mg/dL
CARBON DIOXIDE [1]: 31.33 mmol/L
CHLORIDE [1]: 99.83 MEQ/L
CHOLESTEROL [1]: 76 mg/dL
CREATINE PHOSPHOKINASE [1]: 272.17 u/L
CREATININE [1]: 0.17 mg/dL
GLUCOSE [1]: 143 mg/dL
LACTATE DEHYDROGENASE [1]: 157.5 u/L
LIPASE [1]: 9.33 u/L
PHOSPHORUS [1]: 12.18 mg/dL
POTASSIUM [1]: 6.78 MEQ/L
SODIUM [1]: 143.9 MEQ/L
TOTAL BILIRUBIN [1]: 0.22 mg/dL
TOTAL PROTEIN [1]: 5.85 G/DL
URIC ACID [1]: 1.7 mg/dL
ABSOLUTE BASOPHIL [2]: 0 CELLS/uL
ABSOLUTE EOSINOPHIL [2]: 0 CELLS/uL
ABSOLUTE LYMPHOCYTE [2]: 13539.33 CELLS/uL
ABSOLUTE MONOCYTE [2]: 177.67 CELLS/uL
ABSOLUTE SEGMENTED NEUTROPHIL [2]: 2116.33 CELLS/uL
BASOPHIL [2]: 0%
EOSINOPHIL [2]: 0%
ERYTHROCYTE COUNT [2]: 5.78 x10E6/uL
HEMATOCRIT [2]: 36.13%
HEMOGLOBIN [2]: 14.1 G/DL
LEUKOCYTE COUNT [2]: 15.83 x10E3/uL
LYMPHOCYTE [2]: 85.83%
MEAN CORPUSCULAR HEMOGLOBIN [2]: 24.42 pg
MEAN CORPUSCULAR HEMOGLOBIN CONCENTRATION [2]: 39 G/DL
MEAN CORPUSCULAR VOLUME [2]: 62.55 fL
MONOCYTE [2]: 0.83%
NEUTROPHIL [2]: 13.33%
NUCLEATED RED BLOOD CELLS [2]: 0.17 /100WBC
PLATELET COUNT [2]: 1281.17 x10E3/uL
ALANINE AMINOTRANSFERASE [2]: 55.5 u/L
ALKALINE PHOSPHATASE [2]: 345 u/L
ASPARTATE AMINOTRANSFERASE [2]: 92.5 u/L
BLOOD UREA NITROGEN [2]: 16.5 mg/dL
CARBON DIOXIDE [2]: 26.5 mmol/L
CHLORIDE [2]: 103.5 MEQ/L
CHOLESTEROL [2]: 78.5 mg/dL
CREATINE PHOSPHOKINASE [2]: 381.5 u/L
CREATININE [2]: 0.21 mg/dL
GLUCOSE [2]: 161.83 mg/dL
LACTATE DEHYDROGENASE [2]: 487.5 u/L
LIPASE [2]: 10.17 u/L
PHOSPHORUS [2]: 11.83 mg/dL
POTASSIUM [2]: 6.4 MEQ/L
SODIUM [2]: 146.95 MEQ/L
TOTAL BILIRUBIN [2]: 0.22 mg/dL
TOTAL PROTEIN [2]: 6.22 G/DL
URIC ACID [2]: 1.83 mg/dL
ABSOLUTE BASOPHIL [3]: 0 CELLS/uL
ABSOLUTE EOSINOPHIL [3]: 319 CELLS/uL
ABSOLUTE LYMPHOCYTE [3]: 14175 CELLS/uL
ABSOLUTE MONOCYTE [3]: 161.67 CELLS/uL
ABSOLUTE SEGMENTED NEUTROPHIL [3]: 1511 CELLS/uL
BASOPHIL [3]: 0%
EOSINOPHIL [3]: 2%
ERYTHROCYTE COUNT [3]: 5.5 x10E6/uL
HEMATOCRIT [3]: 34.43%
HEMOGLOBIN [3]: 13.03 G/DL
LEUKOCYTE COUNT [3]: 16.17 x10E3/uL
LYMPHOCYTE [3]: 87.67%
MEAN CORPUSCULAR HEMOGLOBIN [3]: 23.7 pg
MEAN CORPUSCULAR HEMOGLOBIN CONCENTRATION [3]: 37.87 G/DL
MEAN CORPUSCULAR VOLUME [3]: 62.57 fL
MONOCYTE [3]: 1%
NEUTROPHIL [3]: 9.33%
NUCLEATED RED BLOOD CELLS [3]: 0 /100WBC
PLATELET COUNT [3]: 1231 x10E3/uL
ALANINE AMINOTRANSFERASE [3]: 51.33 u/L
ALKALINE PHOSPHATASE [3]: 320.67 u/L
ASPARTATE AMINOTRANSFERASE [3]: 113 u/L
BLOOD UREA NITROGEN [3]: 12.33 mg/dL
CARBON DIOXIDE [3]: 28.33 mmol/L
CHLORIDE [3]: 101.33 MEQ/L
CHOLESTEROL [3]: 94 mg/dL
CREATINE PHOSPHOKINASE [3]: 788.33 u/L
CREATININE [3]: 0.2 mg/dL
GLUCOSE [3]: 138.33 mg/dL
LACTATE DEHYDROGENASE [3]: 1127.33 u/L
LIPASE [3]: 9.67 u/L
PHOSPHORUS [3]: 11.8 mg/dL
POTASSIUM [3]: 6.43 MEQ/L
SODIUM [3]: 144.43 MEQ/L
TOTAL BILIRUBIN [3]: 0.2 mg/dL
TOTAL PROTEIN [3]: 5.7 G/DL
URIC ACID [3]: 1.63 mg/dL
ABSOLUTE BASOPHIL [4]: 0 CELLS/uL
ABSOLUTE EOSINOPHIL [4]: 162 CELLS/uL
ABSOLUTE LYMPHOCYTE [4]: 12014 CELLS/uL
ABSOLUTE MONOCYTE [4]: 120 CELLS/uL
ABSOLUTE SEGMENTED NEUTROPHIL [4]: 1804 CELLS/uL
BASOPHIL [4]: 0%
EOSINOPHIL [4]: 1%
ERYTHROCYTE COUNT [4]: 5.5 x10E6/uL
HEMATOCRIT [4]: 34.77%
HEMOGLOBIN [4]: 13.6 G/DL
LEUKOCYTE COUNT [4]: 14.1 x10E3/uL
LYMPHOCYTE [4]: 85.67%
MEAN CORPUSCULAR HEMOGLOBIN [4]: 24.7 pg
MEAN CORPUSCULAR HEMOGLOBIN CONCENTRATION [4]: 39.13 G/DL
MEAN CORPUSCULAR VOLUME [4]: 63.2 fL
MONOCYTE [4]: 1%
NEUTROPHIL [4]: 12.33%
NUCLEATED RED BLOOD CELLS [4]: 0 /100WBC
PLATELET COUNT [4]: 1229 x10E3/uL
ALANINE AMINOTRANSFERASE [4]: 56 u/L
ALKALINE PHOSPHATASE [4]: 334.33 u/L
ASPARTATE AMINOTRANSFERASE [4]: 113.67 u/L
BLOOD UREA NITROGEN [4]: 15 mg/dL
CARBON DIOXIDE [4]: 23.33 mmol/L
CHLORIDE [4]: 103.33 MEQ/L
CHOLESTEROL [4]: 77.33 mg/dL
CREATINE PHOSPHOKINASE [4]: 1028.67 u/L
CREATININE [4]: 0.23 mg/dL
GLUCOSE [4]: 151.33 mg/dL
LACTATE DEHYDROGENASE [4]: 644.67 u/L
LIPASE [4]: 9 u/L
PHOSPHORUS [4]: 11.9 mg/dL
POTASSIUM [4]: 5.95 MEQ/L
SODIUM [4]: 143.77 MEQ/L
TOTAL BILIRUBIN [4]: 0.2 mg/dL
TOTAL PROTEIN [4]: 5.97 G/DL
URIC ACID [4]: 1.33 mg/dL

From ChEMBL document CHEMBL3885881, “DrugMatrix”
